In the supplement of paper PMC10307832:

Legend:
Test in all cases: relative viability (nuclei count vs DMSO), 5 days (fraction); higher = more cells survive
Vorinostat + Palbociclib = compound: O=C(CCCCCCC(=O)Nc1ccccc1)NO [Vorinostat] + CC(=O)c1c(C)c2cnc(Nc3ccc(N4CCNCC4)cn3)nc2n(C2CCCC2)c1=O [Palbociclib] (partner 0.5 µM)
Procedure, shortened: (§1)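 Lung cancer cell lines, seeded in 1536-well plates, were treated the following day by pin tool with a single drug or with five library-drug doses (not always all listed) in √10 steps on top of a fixed anchor-drug dose. Cells were fixed and nuclei stained in one step after 5 days, and nuclei were counted. Relative viability is the nuclei count for treated wells divided by that for vehicle wells, reported as medians of duplicate plates.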

Vorinostat + Pemetrexed = compound: O=C(CCCCCCC(=O)Nc1ccccc1)NO [Vorinostat] + Nc1nc2[nH]cc(CCc3ccc(C(=O)N[C@@H](CCC(=O)O)C(=O)O)cc3)c2c(=O)[nH]1 [Pemetrexed] (partner 0.2 µM)
Procedure, shortened: as §1

Vorinostat + AZD7762 = compound: O=C(CCCCCCC(=O)Nc1ccccc1)NO [Vorinostat] + NC(=O)Nc1cc(-c2cccc(F)c2)sc1C(=O)N[C@H]1CCCNC1 [AZD7762] (partner 0.2 µM)
Procedure, shortened: as §1

Vorinostat + Phenformin = compound: O=C(CCCCCCC(=O)Nc1ccccc1)NO [Vorinostat] + N=C(N)NC(=N)NCCc1ccccc1 [Phenformin] (partner 250 µM)
Procedure, shortened: as §1

Vorinostat + Bortezomib = compound: O=C(CCCCCCC(=O)Nc1ccccc1)NO [Vorinostat] + CC(C)C[C@H](NC(=O)[C@H](Cc1ccccc1)NC(=O)c1cnccn1)B(O)O [Bortezomib] (partner 0.002 µM)
Procedure, shortened: as §1

| Cell Line | relative viability (Vorinostat + Palbociclib; first compound 0.253 µM) | relative viability (Vorinostat + Palbociclib; first compound 0.8 µM) | relative viability (Vorinostat + Palbociclib; first compound 2.53 µM) | relative viability (Vorinostat + Palbociclib; first compound 8 µM) | relative viability (Vorinostat + Pemetrexed; first compound 0.253 µM) | relative viability (Vorinostat + Pemetrexed; first compound 0.8 µM) | relative viability (Vorinostat + Pemetrexed; first compound 2.53 µM) | relative viability (Vorinostat + Pemetrexed; first compound 8 µM) | relative viability (Vorinostat + AZD7762; first compound 0.253 µM) | relative viability (Vorinostat + AZD7762; first compound 0.8 µM) | relative viability (Vorinostat + AZD7762; first compound 2.53 µM) | relative viability (Vorinostat + AZD7762; first compound 8 µM) | relative viability (Vorinostat + Phenformin; first compound 0.253 µM) | relative viability (Vorinostat + Phenformin; first compound 0.8 µM) | relative viability (Vorinostat + Phenformin; first compound 2.53 µM) | relative viability (Vorinostat + Phenformin; first compound 8 µM) | relative viability (Vorinostat + Bortezomib; first compound 0.253 µM) | relative viability (Vorinostat + Bortezomib; first compound 0.8 µM) | relative viability (Vorinostat + Bortezomib; first compound 2.53 µM) | relative viability (Vorinostat + Bortezomib; first compound 8 µM) |
| --- | --- | --- | --- | --- | --- | --- | --- | --- | --- | --- | --- | --- | --- | --- | --- | --- | --- | --- | --- | --- |
| NCI-H2085 | 0.464 | 0.419 | 0.302 | 0.172 | 1.02 | 0.738 | 0.45 | 0.18 | 0.962 | 0.898 | 0.518 | 0.207 | 0.781 | 0.532 | 0.46 | 0.223 | 0.942 | 0.841 | 0.566 | 0.265 |
| NCI-H2087 | 0.277 | 0.107 | 0.0624 | 0.0734 | 0.637 | 0.617 | 0.347 | 0.132 | 1.35 | 1.04 | 0.498 | 0.102 | 0.449 | 0.331 | 0.0993 | 0.0935 | 0.739 | 0.608 | 0.159 | 0.115 |
| NCI-H2126 | 0.396 | 0.367 | 0.314 | 0.194 | 0.776 | 0.666 | 0.419 | 0.208 | 0.999 | 0.989 | 0.774 | 0.208 | 0.525 | 0.495 | 0.244 | 0.177 | 1.13 | 1.13 | 0.943 | 0.371 |
| NCI-H2347 | 0.405 | 0.371 | 0.362 | 0.242 | 0.427 | 0.41 | 0.416 | 0.299 | 0.595 | 0.696 | 0.456 | 0.226 | 0.46 | 0.351 | 0.19 | 0.2 | 0.971 | 0.843 | 0.561 | 0.199 |
| NCI-H2405 | 0.604 | 0.627 | 0.286 | 0.13 | 1.18 | 1.1 | 0.357 | 0.122 | 0.904 | 0.742 | 0.262 | 0.11 | 0.495 | 0.404 | 0.279 | 0.0401 | 1.06 | 1.01 | 0.952 | 0.206 |
| NCI-H3122 | 0.19 | 0.254 | 0.142 | 0.0743 | 0.199 | 0.199 | 0.174 | 0.0738 | 1.17 | 1.06 | 0.246 | 0.0864 | 0.395 | 0.365 | 0.0662 | 0.118 | 1.07 | 0.995 | 1.03 | 0.145 |
| PC-3 [JPC-3] | 0.521 | 0.506 | 0.45 | 0.378 | 1.1 | 0.866 | 0.285 | 0.281 | 0.834 | 0.526 | 0.306 | 0.271 | 0.471 | 0.465 | 0.436 | 0.279 | 0.846 | 0.85 | 0.398 | 0.216 |
| PC-14 | 0.56 | 0.351 | 0.0802 | 0.0377 | 0.162 | 0.177 | 0.14 | 0.0507 | 0.33 | 0.288 | 0.106 | 0.0453 | 0.713 | 0.561 | 0.131 | 0.0278 | 0.913 | 0.847 | 0.102 | 0.073 |
| RERF-LC-KJ | 1.09 | 0.929 | 0.333 | 0.211 | 0.472 | 0.39 | 0.333 | 0.212 | 1.06 | 0.977 | 0.379 | 0.211 | 0.453 | 0.394 | 0.284 | 0.288 | 1.2 | 1.04 | 0.423 | 0.286 |
